Assay results reported in article PMC6010916, “Safety and pharmacokinetics of veliparib extended‐release in patients with advanced solid tumors: a phase I study” (Cancer Medicine, 2018).

Key:
[1] = Safety: treatment-emergent adverse events (NCI CTCAE version 4.0); assay type: in vivo, human
Experimental: Adverse event (AE) severity was assessed according to the National Cancer Institute Common Terminology Criteria for Adverse Events (NCI CTCAE) version 4.0. Tumor evaluations were performed at screening, every 8 weeks after the first administration of study drug, and at the final visit using radiographic measurements from computed tomography or magnetic resonance imaging. Objective tumor responses were evaluated using RECIST version 1.1 criteria. Patients who received one or more doses of veliparib were included in the PK and safety analyses, as well as for evaluation of time to disease progression (TTP). Patients with one or more measurable lesion at baseline were included in the analysis of objective responses.

[2] = cited from earlier work
[3] = All cycles, All patients (N = 71)
[4] = All cycles, Part 1, extension (n = 24)
[5] = Cycle 1, Part 1, extension (n = 24)

## C[C@]1(c2nc3c(C(N)=O)cccc3[nH]2)CCCN1 [veliparib]
[1]; [3]
  Any SAE: 20 (28.2) n (%)
  SAE leading to discontinuation: 8 (11.3) n (%)
  SAE leading to dose interruption: 14 (19.7) n (%)
  SAE leading to dose reduction: 1 (1.4) n (%)
  TEAE: Any AE: 70 (98.6) n (%)
  TEAE: At least possibly related to study drug: 60 (84.5) n (%)
  TEAE: NCI CTCAE grade 3 or 4: 28 (39.4) n (%)
[1]; [4]
  Any SAE: 5 (20.8) n (%)
  SAE leading to discontinuation: 3 (12.5) n (%)
  SAE leading to dose interruption: 4 (16.7) n (%)
  SAE leading to dose reduction: 0 n (%)
  TEAE: Abdominal pain: 3 (12.5) n (%)
  TEAE: Anemia: 3 (12.5) n (%)
  TEAE: Any AE: 23 (95.8) n (%)
  TEAE: At least possibly related to study drug: 17 (70.8) n (%)
  TEAE: Constipation: 5 (20.8) n (%)
  TEAE: Decreased appetite: 1 (4.2) n (%)
  TEAE: Diarrhea: 5 (20.8) n (%)
  TEAE: Fatigue: 7 (29.2) n (%)
  TEAE: NCI CTCAE grade 3 or 4: 7 (29.2) n (%)
  TEAE: Nausea, Grade 1: 11 (45.8) n (%)
  TEAE: Nausea, Grade 2: 3 (12.5) n (%)
  TEAE: Nausea, Grade 3: 0 n (%)
  TEAE: Urinary tract infection: 7 (29.2) n (%)
  TEAE: Vomiting: 11 (45.8) n (%)
  TEAE: Vomiting, Grade 1: 11 (45.8) n (%)
  TEAE: Vomiting, Grade 2: 0 n (%)
  TEAE: Vomiting, Grade 3: 0 n (%)
[1]; All cycles, Part 2 (n = 35)
  Any SAE: 11 (31.4) n (%)
  SAE leading to discontinuation: 4 (11.4) n (%)
  SAE leading to dose interruption: 6 (17.1) n (%)
  SAE leading to dose reduction: 1 (2.9) n (%)
  TEAE: Abdominal pain: 7 (20.0) n (%)
  TEAE: Anemia: 10 (28.6) n (%)
  TEAE: Any AE: 35 (100) n (%)
  TEAE: At least possibly related to study drug: 33 (94.3) n (%)
  TEAE: Constipation: 14 (40.0) n (%)
  TEAE: Decreased appetite: 11 (31.4) n (%)
  TEAE: Diarrhea: 10 (28.6) n (%)
  TEAE: Fatigue: 14 (40.0) n (%)
  TEAE: NCI CTCAE grade 3 or 4: 17 (48.6) n (%)
  TEAE: Nausea: 31 (88.6) n (%)
  TEAE: Nausea, Grade 1: 24 (68.6) n (%)
  TEAE: Nausea, Grade 2: 5 (14.3) n (%)
  TEAE: Nausea, Grade 3: 2 (5.7) n (%)
  TEAE: Urinary tract infection: 5 (14.3) n (%)
  TEAE: Vomiting: 17 (48.6) n (%)
  TEAE: Vomiting, Grade 1: 13 (37.1) n (%)
  TEAE: Vomiting, Grade 2: 3 (8.6) n (%)
  TEAE: Vomiting, Grade 3: 1 (2.9) n (%)
[1]; All cycles, Part 3 (n = 12)
  Any SAE: 4 (33.3) n (%)
  SAE leading to discontinuation: 1 (8.3) n (%)
  SAE leading to dose interruption: 4 (33.3) n (%)
  SAE leading to dose reduction: 0 n (%)
  TEAE: Abdominal pain: 4 (33.3) n (%)
  TEAE: Anemia: 2 (16.7) n (%)
  TEAE: Any AE: 12 (100) n (%)
  TEAE: At least possibly related to study drug: 10 (83.3) n (%)
  TEAE: Constipation: 4 (33.3) n (%)
  TEAE: Decreased appetite: 2 (16.7) n (%)
  TEAE: Diarrhea: 6 (50.0) n (%)
  TEAE: Fatigue: 2 (16.7) n (%)
  TEAE: NCI CTCAE grade 3 or 4: 4 (33.3) n (%)
  TEAE: Nausea: 9 (75.0) n (%)
  TEAE: Nausea, Grade 1: 6 (50.0) n (%)
  TEAE: Nausea, Grade 2: 2 (16.7) n (%)
  TEAE: Nausea, Grade 3: 1 (8.3) n (%)
  TEAE: Urinary tract infection: 3 (25.0) n (%)
  TEAE: Vomiting: 7 (58.3) n (%)
  TEAE: Vomiting, Grade 1: 4 (33.3) n (%)
  TEAE: Vomiting, Grade 2: 2 (16.7) n (%)
  TEAE: Vomiting, Grade 3: 1 (8.3) n (%)
[1]; Cycle 1, All patients (N = 71)
  Any SAE: 10 (14.1) n (%)
  SAE leading to discontinuation: 4 (5.6) n (%)
  SAE leading to dose interruption: 6 (8.5) n (%)
  SAE leading to dose reduction: 1 (1.4) n (%)
  TEAE: Any AE: 67 (94.4) n (%)
  TEAE: At least possibly related to study drug: 50 (70.4) n (%)
  TEAE: NCI CTCAE grade 3 or 4: 13 (18.3) n (%)
[1]; [5]
  Any SAE: 4 (16.7) n (%)
  SAE leading to discontinuation: 3 (12.5) n (%)
  SAE leading to dose interruption: 2 (8.3) n (%)
  SAE leading to dose reduction: 0 n (%)
  TEAE: Any AE: 23 (95.8) n (%)
  TEAE: At least possibly related to study drug: 14 (58.3) n (%)
  TEAE: NCI CTCAE grade 3 or 4: 4 (16.7) n (%)
[1]; Cycle 1, Part 2 (n = 35)
  Any SAE: 5 (14.3) n (%)
  SAE leading to discontinuation: 1 (2.9) n (%)
  SAE leading to dose interruption: 3 (8.6) n (%)
  SAE leading to dose reduction: 1 (2.9) n (%)
  TEAE: Any AE: 34 (97.1) n (%)
  TEAE: At least possibly related to study drug: 29 (82.9) n (%)
  TEAE: NCI CTCAE grade 3 or 4: 8 (22.9) n (%)
[1]; Cycle 1, Part 3 (n = 12)
  Any SAE: 1 (8.3) n (%)
  SAE leading to discontinuation: 0 n (%)
  SAE leading to dose interruption: 1 (8.3) n (%)
  SAE leading to dose reduction: 0 n (%)
  TEAE: Any AE: 10 (83.3) n (%)
  TEAE: At least possibly related to study drug: 7 (58.3) n (%)
  TEAE: NCI CTCAE grade 3 or 4: 1 (8.3) n (%)
[1]; Part 1, PK BA portion (n = 24)
  Any SAE: 2 (8.3) n (%)
  SAE leading to discontinuation: 0 n (%)
  SAE leading to dose interruption: 1 (4.2) n (%)
  SAE leading to dose reduction: 0 n (%)
  TEAE: Any AE: 17 (70.8) n (%)
  TEAE: At least possibly related to study drug: 7 (29.2) n (%)
  TEAE: NCI CTCAE grade 3 or 4: 2 (8.3) n (%)
[1]; Part 1, PK phase (n = 24)
  TEAE: Abdominal pain: 3 (12.5) n (%)
  TEAE: Anemia: 1 (4.2) n (%)
  TEAE: Constipation: 0 n (%)
  TEAE: Decreased appetite: 1 (4.2) n (%)
  TEAE: Diarrhea: 2 (8.3) n (%)
  TEAE: Fatigue: 0 n (%)
  TEAE: Nausea: 4 (16.7) n (%)
  TEAE: Nausea, Grade 1: 4 (16.7) n (%)
  TEAE: Nausea, Grade 2: 0 n (%)
  TEAE: Nausea, Grade 3: 0 n (%)
  TEAE: Urinary tract infection: 0 n (%)
  TEAE: Vomiting: 1 (4.2) n (%)
  TEAE: Vomiting, Grade 1: 1 (4.2) n (%)
  TEAE: Vomiting, Grade 2: 0 n (%)
  TEAE: Vomiting, Grade 3: 0 n (%)
[1]; Part 1 extension/Part 2/Part 3
  grade 3 or 4 treatment-related anemia, patients: 0/3/0
  grade 3 or 4 treatment-related nausea, patients: 0/2/1
  grade 3 or 4 treatment-related thrombocytopenia, patients: 2/3/0
[1]; Total (N = 71)
  TEAE: Abdominal pain: 17 (23.9) n (%)
  TEAE: Constipation: 23 (32.4) n (%)
  TEAE: Decreased appetite: 15 (21.1) n (%)
  TEAE: Diarrhea: 23 (32.4) n (%)
  TEAE: Fatigue: 23 (32.4) n (%)
  TEAE: Nausea: 56 (78.9) n (%)
  TEAE: Nausea, Grade 1: 45 (63.4) n (%)
  TEAE: Nausea, Grade 2: 10 (14.1) n (%)
  TEAE: Nausea, Grade 3: 3 (4.2) n (%)
  TEAE: Urinary tract infection: 15 (21.1) n (%)
  TEAE: Vomiting: 36 (50.7) n (%)
  TEAE: Vomiting, Grade 1: 29 (40.8) n (%)
  TEAE: Vomiting, Grade 2: 5 (7.0) n (%)
  TEAE: Vomiting, Grade 3: 2 (2.8) n (%)
[1]; all cycles, 71 patients
  patients who experienced one or more TEAE: 98.6%
  patients with Grade 3 or 4 TEAEs: 39.4%
[1]; cycle 1, 71 patients
  patients who experienced one or more TEAE: 94.4%
  patients with Grade 3 or 4 TEAEs: 18.3%
[1]; overall
  grade 3 or 4 treatment-related anemia: 4.2%
  grade 3 or 4 treatment-related nausea: 4.2%
  grade 3 or 4 treatment-related thrombocytopenia: 7.0%
[1]; overall, 71 patients
  TEAE constipation, frequency: 32.4%
  TEAE diarrhea, frequency: 32.4%
  TEAE fatigue, frequency: 32.4%
  TEAE nausea, frequency: 78.9%
  TEAE vomiting, frequency: 50.7%
[2]; single agent, phase I study
  RP2D: 400 mg twice-daily (BID)
[2]; single-agent therapy, phase I and II trials
  patients experiencing grade 3 or 4 neutropenia or thrombocytopenia: 2%
[2]; single-agent therapy
  patients with dose modifications, predominantly for nausea and vomiting: 78%
